Results published in ChEMBL document CHEMBL4421722, “Inhibitors of protein prenyltransferases” (2013).

Columns and labels:
Rattus norvegicus [1] = species on record: Rattus norvegicus; assay: Inhibition of rat recombinant geranylgeranyltransferase type I expressed in Escherichia coli assessed as residual enzyme activity for geranylgeranylation of RhoA at 50 uM incubated for 30 mins in presence of [3H]GGPP by scintillation counting assay relative to control
Rattus norvegicus [2] = species on record: Rattus norvegicus; assay: Inhibition of rat recombinant geranylgeranyltransferase type I expressed in Escherichia coli assessed as residual enzyme activity for geranylgeranylation of K-Ras4B at 50 uM incubated for 30 mins in presence of [3H]GGPP by scintillation counting assay relative to control

Activity (Rattus norvegicus [1]) | Activity (Rattus norvegicus [2]) | SMILES
17.2% | 22 to 29.6% | Cc1ccc([C@@H]2C[C@@H](SCc3ccc(Cl)cc3)[C@H](C(=O)O)CN2S(=O)(=O)c2ccccc2)cc1
0.5% | 23.9 to 30.9% | COc1ccc([C@@H]2C[C@@H](SCc3ccc(Cl)cc3)[C@H](C(=O)O)CN2S(=O)(=O)c2ccccc2C)cc1
9.1% | 23.7% | Cc1ccccc1S(=O)(=O)N1[C@@H](c2ccc(Cl)cc2)C(C(=O)O)=C[C@H]1CC1CCCC1
2% | 6.5 to 9.2% | Cc1ccc(S(=O)(=O)N2C[C@@H](C(=O)O)[C@H](SCCc3ccccc3)C[C@H]2c2ccc3c(c2)OCO3)cc1
6.1% | 23.4% | COc1ccc([C@H]2C(C(=O)O)=C[C@@H](C(C)(C)C)N2S(=O)(=O)c2ccc(C)cc2)cc1OC
5.8% | 13.4% | Cc1ccccc1S(=O)(=O)N1[C@@H](c2ccccc2)C(C(=O)O)=CC[C@H]1c1ccc(Cl)cc1
3.7% | 9.4 to 15.2% | Cc1ccc(S(=O)(=O)N2[C@@H](c3cccc(Br)c3)C(C(=O)O)=CC[C@H]2c2cccc(Br)c2)cc1
10.3% | 12.6 to 20.2% | Cc1ccc(S(=O)(=O)N2[C@@H](c3cccc(C)c3)C(C(=O)O)=CC[C@H]2c2ccc(Cl)c(Cl)c2)cc1
14.5% | 24.6 to 37.2% | CCOc1ccc([C@@H]2C[C@@H](SCCc3ccccc3)[C@H](C(=O)O)CN2S(=O)(=O)c2ccc(C)cc2)cc1
9.2% | 21.3% | CCCCCC[C@@H]1[C@@H](Sc2ccc(C)cc2)[C@@H](C(=O)O)[C@H](c2ccc(Cl)c(Cl)c2)N1S(=O)(=O)c1ccc(C)cc1
3.1% | 3.4 to 6.8% | Cc1ccc(S(=O)(=O)N2C[C@@H](C(=O)O)[C@H](SCCc3ccccc3)C[C@H]2c2ccccc2F)cc1
8.9% | 28.4% | C=CCS[C@H]1[C@@H](C(=O)O)[C@H](c2ccc(Cl)cc2)N(S(=O)(=O)c2ccccc2C)[C@@H]1CCC
14.2% | 64.1% | Cc1ccc(S(=O)(=O)N2C[C@@H](C(=O)O)[C@H](Sc3ccc(Cl)cc3)C[C@H]2c2ccccc2)cc1
5.5% | 15.5% | C=CCS[C@H]1[C@@H](C(=O)O)[C@H](c2ccc(Br)cc2)N(S(=O)(=O)c2ccc(C)cc2)[C@@H]1CCCCCC
4.1% | 8.4% | Cc1ccccc1S(=O)(=O)N1[C@@H](c2ccccc2F)C(C(=O)O)=CC[C@H]1c1ccc(Cl)cc1
14.3% | 16.1 to 31.9% | Cc1ccc(S(=O)(=O)N2[C@@H](c3cccc(C)c3)C(C(=O)O)=CC[C@H]2c2cccc(Br)c2)cc1
6% | 111% | Cc1ccc(S(=O)(=O)N2C[C@@H](C(=O)O)[C@H](Sc3ccc(Cl)cc3)C[C@H]2c2cccc(Cl)c2)cc1
10.5% | 19.6 to 20.4% | Cc1ccc([C@@H]2C[C@@H](SCc3ccc(Cl)cc3)[C@H](C(=O)O)CN2S(=O)(=O)c2ccccc2C)cc1
12.6% | 15.6 to 28.8% | Cc1ccccc1S(=O)(=O)N1[C@@H](c2ccc(F)cc2)C(C(=O)O)=CC[C@H]1c1ccc(Cl)cc1
3.5% | 27.4% | CCCC[C@@H]1[C@@H](Sc2ccc(OC)cc2)[C@@H](C(=O)O)[C@H](c2cccc(F)c2)N1S(=O)(=O)c1ccc(C)cc1

Activity (Rattus norvegicus [1]) | Activity (Rattus norvegicus [2]) | SMILES
3.3% | 42.3% | Cc1ccc([C@@H]2C[C@@H](Sc3ccc(Cl)cc3)[C@H](C(=O)O)CN2S(=O)(=O)c2ccc(Cl)cc2)cc1
9.6% | 24.1 to 28.3% | COc1ccc([C@@H]2C[C@@H](SCCc3ccccc3)[C@H](C(=O)O)CN2S(=O)(=O)c2ccccc2)cc1
9.6% | 21.4% | C=CCS[C@H]1[C@@H](C(=O)O)[C@H](c2ccc(Cl)c(Cl)c2)N(S(=O)(=O)c2ccc(C)cc2)[C@@H]1CCCC
6% | 11.9 to 13.5% | Cc1ccc(S(=O)(=O)N2C[C@@H](C(=O)O)[C@H](SCc3ccc(Cl)cc3)C[C@H]2c2cccc(Cl)c2)cc1
7.7% | 25.2% | C=CCS[C@H]1[C@@H](C(=O)O)[C@H](c2ccc(Cl)cc2)N(S(=O)(=O)c2ccc(C)cc2)[C@@H]1CC1CCCC1
7.8% | 10% | Cc1ccccc1S(=O)(=O)N1[C@H](CC2CCCC2)[C@@H](SCCC(=O)OC(C)(C)C)[C@@H](C(=O)O)[C@@H]1c1ccc(Cl)cc1
2.3% | 13.7 to 19.2% | Cc1ccc(S(=O)(=O)N2C[C@@H](C(=O)O)[C@H](SCCC(C)C)C[C@H]2c2cccc(Br)c2)cc1
13% | 83.5% | Cc1ccccc1S(=O)(=O)N1C[C@@H](C(=O)O)[C@H](Sc2ccc(Cl)cc2)C[C@H]1c1ccc(Cl)cc1
6.1% | 28.8 to 29.9% | COc1ccc([C@@H]2C[C@@H](SCCc3ccccc3)[C@H](C(=O)O)CN2S(=O)(=O)c2ccc(C)cc2)cc1
8.3% | 87.5% | Cc1ccc(S(=O)(=O)N2C[C@@H](C(=O)O)[C@H](Sc3ccccc3)C[C@H]2c2cccc(Cl)c2)cc1
17.7% | 72.2% | COc1ccc([C@@H]2C[C@@H](Sc3ccc(Cl)cc3)[C@H](C(=O)O)CN2S(=O)(=O)c2ccccc2C)cc1
5.9% | 15.1 to 20.8% | Cc1ccc(S(=O)(=O)N2C[C@@H](C(=O)O)[C@H](SCCc3ccccc3)C[C@H]2c2ccc(Cl)cc2)cc1
7.9% | 9.8 to 24.4% | Cc1ccc(S(=O)(=O)N2[C@@H](c3cccc(Cl)c3)C(C(=O)O)=CC[C@H]2c2cccc(Br)c2)cc1
9.3% | 23.1% | C=CCS[C@H]1[C@@H](C(=O)O)[C@H](c2ccc(C#N)cc2)N(S(=O)(=O)c2ccc(C)cc2)[C@@H]1C(C)C
7.6% | 27.2% | CC[C@@H]1[C@@H](SCCC(=O)OC(C)(C)C)[C@@H](C(=O)O)[C@H](c2ccc(Cl)c(Cl)c2)N1S(=O)(=O)c1ccc(C)cc1
19.8% | 43.5 to 43.7% | CCCCS[C@@H]1C[C@@H](c2ccc(C)cc2)N(S(=O)(=O)c2ccccc2C)C[C@H]1C(=O)O
6% | 24.9% | C=CCS[C@H]1[C@@H](C(=O)O)[C@H](c2ccc(Cl)cc2)N(S(=O)(=O)c2ccccc2C)[C@@H]1CCCCCC
7.5% | 9.8% | C=CCS[C@H]1[C@@H](C(=O)O)[C@H](c2ccc(Br)cc2)N(S(=O)(=O)c2ccc(C)cc2)[C@@H]1CCC
7.4% | 8.4 to 19.9% | Cc1ccc([C@@H]2CC=C(C(=O)O)[C@H](c3cccc(Br)c3)N2S(=O)(=O)c2ccc(Cl)cc2)cc1
3.3% | 30.8 to 31.6% | Cc1ccc([C@@H]2C[C@@H](SCc3ccc(Cl)cc3)[C@H](C(=O)O)CN2S(=O)(=O)c2ccc(Cl)cc2)cc1

Activity (Rattus norvegicus [1]) | Activity (Rattus norvegicus [2]) | SMILES
6% | 21.5% | C=CCS[C@H]1[C@@H](C(=O)O)[C@H](c2ccc(C#N)cc2)N(S(=O)(=O)c2ccc(C)cc2)[C@@H]1CCCCCC
13.6% | 29.2 to 83.6% | C=CCS[C@@H]1C[C@@H](c2cccc(Br)c2)N(S(=O)(=O)c2ccc(C)cc2)C[C@H]1C(=O)O
9.7% | 30.4% | C=CCS[C@H]1[C@@H](C(=O)O)[C@H](c2cccc(F)c2)N(S(=O)(=O)c2ccc(C)cc2)[C@@H]1CC1CCCC1
3.2% | 7.8 to 8% | Cc1ccc(S(=O)(=O)N2C[C@@H](C(=O)O)[C@H](SCc3ccc(Cl)cc3)C[C@H]2c2cccc(Br)c2)cc1
17.2% | 78.3% | Cc1ccc([C@@H]2C[C@@H](Sc3ccc(Cl)cc3)[C@H](C(=O)O)CN2S(=O)(=O)c2ccccc2)cc1
6% | 43.7 to 43.8% | Cc1ccc(S(=O)(=O)N2[C@@H](c3cccc(Cl)c3)C(C(=O)O)=CC[C@H]2c2cccc(Cl)c2)cc1
15% | 17 to 85.6% | Cc1ccc(S(=O)(=O)N2[C@@H](c3cccc(F)c3)C(C(=O)O)=CC[C@H]2c2cccc(Br)c2)cc1
2.6% | 3.1 to 3.7% | CCOc1ccc([C@@H]2C[C@@H](SCc3ccc(Cl)cc3)[C@H](C(=O)O)CN2S(=O)(=O)c2ccc(C)cc2)cc1
6% | 15.2 to 19.5% | COc1ccc([C@@H]2C[C@@H](SCCc3ccccc3)[C@H](C(=O)O)CN2S(=O)(=O)c2ccccc2C)cc1
7.1% | 23.5% | CCCCS[C@H]1[C@@H](C(=O)O)[C@H](c2cccc(F)c2)N(S(=O)(=O)c2ccc(C)cc2)[C@@H]1CCCC
17.5% | 69.5% | Cc1ccc([C@@H]2C[C@@H](Sc3ccccc3)[C@H](C(=O)O)CN2S(=O)(=O)c2ccccc2C)cc1
19.4% | 35.2% | Cc1ccc(S(=O)(=O)N2[C@@H](c3ccccc3)C(C(=O)O)=CC[C@H]2c2cccc(Br)c2)cc1
6.1% | 31.7% | C=CCS[C@H]1[C@@H](C(=O)O)[C@H](c2ccc(C(C)C)cc2)N(S(=O)(=O)c2ccc(C)cc2)[C@@H]1CC1CCCC1
5.9% | 28.1% | CC(C)CCS[C@H]1[C@@H](C(=O)O)[C@H](c2ccc(Cl)cc2)N(S(=O)(=O)c2ccccc2)[C@@H]1C(C)C
8.4% | 23.1% | C=CCS[C@H]1[C@@H](C(=O)O)[C@H](c2ccc(Cl)cc2)N(S(=O)(=O)c2ccccc2C)[C@@H]1CCCC
3.7% | 4.8 to 9.2% | Cc1ccc(S(=O)(=O)N2C[C@@H](C(=O)O)[C@H](SCCc3ccccc3)C[C@H]2c2cccc(Cl)c2)cc1
-1.5% | 5.9 to 9% | CCCCS[C@@H]1C[C@@H](c2cccc(Br)c2)N(S(=O)(=O)c2ccc(C)cc2)C[C@H]1C(=O)O
11.3% | 18.7 to 22.8% | Cc1ccc(S(=O)(=O)N2[C@@H](c3ccc(Br)cc3)C(C(=O)O)=CC[C@H]2c2ccc(Cl)c(Cl)c2)cc1
12.1% | 17.7 to 21.3% | Cc1ccc(S(=O)(=O)N2[C@@H](c3ccc(Cl)cc3)C(C(=O)O)=CC[C@H]2c2ccc(Cl)c(Cl)c2)cc1
13.4% | 29.2 to 31.9% | COc1ccc([C@@H]2C[C@@H](SCc3ccc(Cl)cc3)[C@H](C(=O)O)CN2S(=O)(=O)c2ccccc2)cc1
